The values below come from publication PMC12301332, “Biased antagonism of a series of bicyclic CXCR2 intracellular allosteric modulators” (Frontiers in Pharmacology, 2025).

Assay [1] has as its target T1, CXCR2 (Homo sapiens, UniProt P25025).
T1 construct: expressed in transfected cells
T1 sequence (P25025 1-360): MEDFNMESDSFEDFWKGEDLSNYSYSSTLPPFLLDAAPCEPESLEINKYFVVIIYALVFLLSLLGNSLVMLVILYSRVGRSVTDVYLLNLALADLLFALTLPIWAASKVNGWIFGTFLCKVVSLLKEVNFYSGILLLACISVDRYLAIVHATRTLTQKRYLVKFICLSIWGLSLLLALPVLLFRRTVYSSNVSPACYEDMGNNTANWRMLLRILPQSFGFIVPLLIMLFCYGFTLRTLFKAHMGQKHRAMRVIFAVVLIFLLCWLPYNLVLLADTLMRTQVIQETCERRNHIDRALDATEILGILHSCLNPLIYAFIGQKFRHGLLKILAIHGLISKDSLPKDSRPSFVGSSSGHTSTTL
In words: NanoBRET β-arrestin1 recruitment inhibition assay (NanoLux) in HEK293A cells. It counts as cell-based. The note with it: for Imax βarr1 (maximum observed inhibitory effect): normalized to Imax of navarixin = 100%. As to the method:
Cells were trypsinized and resuspended at 3 × 10^5 cell/mL in the growth medium, whereafter they were incubated for 2 hours at RT. Cells were transfected in suspension using FuGENE® HD Transfection Reagent at a 3:1 reagent to DNA ratio in Opti-MEMTM I Reduced-Serum Medium, with the final DNA concentration of 1 μg/μL. The transfection mixture was incubated for 10 min at RT before adding it to the cell suspension. Transfected cells were seeded at 3.0 × 10^4 cells/well in a white, clear, flat-bottom 96-well plate coated with 100 μg/mL poly-D-lysin ([…], Sigma Aldrich) and incubated for 48 h at 37°C and 5% CO2. HEK293A cells were transiently co-transfected with plasmids encoding β-arrestin1 protein tagged with NLuc (donor) and CXCR2 protein tagged with mNeonGreen (mNG) acceptor in a 1:10 donor to acceptor ratio, as described previously ([Luís et al., 2022]). All subsequent steps are identical to those in “NanoBRET-based G protein activation inhibition assay,” which are described above. Measurements were acquired using a 440- to 480-nm donor emission filter (#0200-6179, Molecular Devices) and a 515- to 575-nm acceptor emission filter (#0200-6203, Molecular Devices) BRET ratios were extracted from ScreenWorks software (Molecular Devices) and represent the ratio between the acceptor emission of […]2 or mNG (G protein or β-arrestin recruitment, respectively) and NLuc donor emission. The basal BRET ratio was defined as the average BRET ratio of the five consecutive readings preceding ligand addition. Changes in BRET values post ligand administration (ΔBRET) were calculated for each well as a percentage difference to the previously defined basal BRET ratio. Average ΔBRET values were baseline corrected by subtracting the average negative control BRET ratio (unstimulated condition). […] AUCs were normalized to the positive control (stimulated condition); whereafter, dose-response curves were fitted to log (inhibitor) vs response (three parameters) in GraphPad 10.2.0 (GraphPad Software). […] Calculation 1: calculation of the BRET signal. • 1. […] NC correctedΔBRET=Δ[…]. • 4. a. Neg AUC of NC correctedΔBRET=Gα activation read out. b. Pos AUC of NC correctedΔBRET=β-arrestin recruitment.
On the technique in general: BRET reads energy transfer from a luciferase to a nearby fluorophore.

In assay [2] the target is T1, CXCR2. Also on record: method as in Van Hoof et al., 2022. The following applies: ref Van Hoof et al., 2022; cited from earlier work.
Where [3] appears, read: CXCL1 at EC80, mean, n = 3, read-out: IC50 βarr1.
Where [4] appears, read: CXCL2 at EC80, mean, n = 3, read-out: IC50 βarr1.
Where [5] appears, read: CXCL3 at EC80, mean, n = 3, read-out: IC50 βarr1.
Setting [6] is: CXCL5 at EC80, mean, n = 3, read-out: IC50 βarr1.
The mark [7] stands for this setting: CXCL6 at EC80, mean, n = 3, read-out: IC50 βarr1.
Setting [8] is: CXCL7 at EC80, mean, n = 3, read-out: IC50 βarr1.
Setting [9] is: CXCL8 at EC80, mean, n = 3, read-out: IC50 βarr1.

Where two headings read alike, the source gives them in different places.

What is called IC50 is the concentration at which inhibition is half-maximal.

Take `CC(CO)Nc1nc(SCc2cccc(F)c2F)nc2cnccc12` (stereo not drawn) [MVH-3]: the IC50 at CXCR2 [1] (setting [3]) is 980 ± 180 nM; on CXCR2 [1] (setting [4]), 580 ± 170 nM; at CXCR2 [1] (setting [5]), 1590 ± 430 nM; at CXCR2 [1] (setting [6]) it was 840 ± 160 nM; on CXCR2 [1] (setting [7]), 700 ± 170 nM; at CXCR2 [1] (setting [8]), 160 ± 50 nM. Besides, at CXCR2 [1] (setting [9]), the IC50 was found to be 1340 ± 450 nM. Further, the “Imax βarr1 (maximum observed inhibitory effect)” value at CXCR2 [1] (CXCL1 at EC80, n = 3) is 100%; at CXCR2 [1] (CXCL2 at EC80, n = 3) it was 100%; at CXCR2 [1] (CXCL3 at EC80, n = 3), 100%; on CXCR2 [1] (CXCL5 at EC80, n = 3), 100%; on CXCR2 [1] (CXCL6 at EC80, n = 3), 100%; at CXCR2 [1] (CXCL7 at EC80, n = 3) it was 95.75 ± 3.49%. The “Imax βarr1 (maximum observed inhibitory effect)” value on CXCR2 [1] (CXCL8 at EC80, n = 3) was 90.8 ± 4.62%. On CXCR2 [2], the calcium mobilization antagonism entry is on record as “potent”.

As to `CC(CO)Nc1nc(SCc2cccc(F)c2F)nc2oncc12` (stereo not drawn) [MVH-24], the IC50 on CXCR2 [1] (setting [3]) worked out at 170 ± 60 nM; on CXCR2 [1] (setting [4]), 80 ± 40 nM; on CXCR2 [1] (setting [5]) it was 140 ± 50 nM; at CXCR2 [1] (setting [6]), 90 ± 30 nM; at CXCR2 [1] (setting [7]), 70 ± 20 nM; on CXCR2 [1] (setting [8]), 30 ± 10 nM. Also, the IC50 at CXCR2 [1] (setting [9]) is 150 ± 40 nM; at CXCR2 [1] (range across ELR+ chemokines, read-out: IC50 β-arrestin1 recruitment inhibition), 30 to 170 nM. Further, the “Imax βarr1 (maximum observed inhibitory effect)” value was found to be 100% on CXCR2 [1] (CXCL1 at EC80, n = 3); 100% at CXCR2 [1] (CXCL2 at EC80, n = 3); 99.42 ± 0.85% at CXCR2 [1] (CXCL3 at EC80, n = 3); 100% on CXCR2 [1] (CXCL5 at EC80, n = 3); 100% on CXCR2 [1] (CXCL6 at EC80, n = 3); 100% at CXCR2 [1] (CXCL7 at EC80, n = 3). Besides, the “Imax βarr1 (maximum observed inhibitory effect)” value on CXCR2 [1] (CXCL8 at EC80, n = 3) is given as 100%. Besides, the calcium mobilization antagonism entry at CXCR2 [2] was “most potent”.

On to `CC(CCO)Nc1nc(SCc2cccc(F)c2F)nc2[nH]nnc12` (stereo not drawn) [MVH-33], for which the IC50 came out at 1460 ± 580 nM at CXCR2 [1] (setting [3]); 660 ± 210 nM on CXCR2 [1] (setting [4]); 1530 ± 260 nM at CXCR2 [1] (setting [5]); 1120 ± 260 nM on CXCR2 [1] (setting [6]); 790 ± 370 nM at CXCR2 [1] (setting [7]); 340 ± 130 nM on CXCR2 [1] (setting [8]). Further, on CXCR2 [1] (setting [9]), the IC50 was found to be 1510 ± 1010 nM. Further, the “Imax βarr1 (maximum observed inhibitory effect)” value on CXCR2 [1] (CXCL1 at EC80, n = 3) is reported as 98.15 ± 4.28%; on CXCR2 [1] (CXCL2 at EC80, n = 3), 92.98 ± 2.58%; on CXCR2 [1] (CXCL3 at EC80, n = 3), 96.91 ± 2.10%; on CXCR2 [1] (CXCL5 at EC80, n = 3), 100%; on CXCR2 [1] (CXCL6 at EC80, n = 3), 93.68 ± 7.03%; on CXCR2 [1] (CXCL7 at EC80, n = 3), 100%. In addition, the “Imax βarr1 (maximum observed inhibitory effect)” value on CXCR2 [1] (CXCL8 at EC80, n = 3) came to 100%.
